Results as given in the supplement of paper PMC11451515.

How the values were obtained:
Conditions in all cases: 48 h
NOMO1 = assay: AUC of viability dose-response curve (% viability x log10 dose units); higher = less sensitive
Procedure, shortened: (§1)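 Area under the curve was integrated by trapezoidal rule from a log-logistic fit of normalised viability, with curves exceeding full viability scaled and quality-control failures removed. The fit had four parameters over log10 doses. Viability came from CellTiter-Glo One luminescence, normalised per plate to DMSO and cell-free wells, after leukemia cells adapted to each medium (500 or 1000 cells/well, 1536-well plates) were exposed to library compounds in DMSO for 48 h at 37°C. The 11 threefold doses ran from 47 μM to 0.79 nM.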

P12-Ichikawa = assay: as above
Procedure, shortened: as §1

SEM cells [1] = assay: as above
Procedure, shortened: as §1

SEM cells [2] = assay: cell viability relative to DMSO control; higher = less cytotoxic
Procedure, shortened: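 Before seeding, each leukemia line was adapted for at least four passages in each medium. NOMO1 or SEM cells (500 cells/well) and P12-Ichikawa cells (1000 cells/well) went into 1536-well plates at 5 μl, then received library compounds in DMSO by pin dosing across 11 threefold concentrations, 47 μM to 0.79 nM. Readout was CellTiter-Glo One luminescence after 48 h at 37°C, and viability is given as a per-plate percentage of DMSO wells, with cell-free wells as background.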

[3] = RPMI 5 mM glucose + 10% dialyzed FBS

Structure (SMILES) | AUC of viability dose-response curve (NOMO1; HPLM + 10% dialyzed FBS) | AUC of viability dose-response curve (NOMO1; RPMI 5 mM glucose + 10% FBS) | AUC of viability dose-response curve (NOMO1; [3]) | AUC of viability dose-response curve (P12-Ichikawa; HPLM + 10% dialyzed FBS) | AUC of viability dose-response curve (P12-Ichikawa; RPMI 5 mM glucose + 10% FBS) | AUC of viability dose-response curve (P12-Ichikawa; [3]) | AUC of viability dose-response curve (SEM cells [1]; HPLM + 10% dialyzed FBS) | AUC of viability dose-response curve (SEM cells [1]; RPMI 5 mM glucose + 10% FBS) | AUC of viability dose-response curve (SEM cells [1]; [3]) | cell viability (SEM cells [2]; HPLM + 10% dialyzed FBS, 0.000781 µM) | cell viability (SEM cells [2]; HPLM + 10% dialyzed FBS, 0.00234 µM) | cell viability (SEM cells [2]; HPLM + 10% dialyzed FBS, 0.00702 µM) | cell viability (SEM cells [2]; HPLM + 10% dialyzed FBS, 0.0211 µM) | cell viability (SEM cells [2]; HPLM + 10% dialyzed FBS, 0.0632 µM) | cell viability (SEM cells [2]; HPLM + 10% dialyzed FBS, 0.19 µM) | cell viability (SEM cells [2]; HPLM + 10% dialyzed FBS, 0.569 µM) | cell viability (SEM cells [2]; HPLM + 10% dialyzed FBS, 1.71 µM) | cell viability (SEM cells [2]; HPLM + 10% dialyzed FBS, 5.12 µM) | cell viability (SEM cells [2]; HPLM + 10% dialyzed FBS, 15.4 µM) | cell viability (SEM cells [2]; HPLM + 10% dialyzed FBS, 46.1 µM) | cell viability (SEM cells [2]; RPMI 5 mM glucose + 10% dialyzed FBS, 0.000781 µM) | cell viability (SEM cells [2]; RPMI 5 mM glucose + 10% dialyzed FBS, 0.00234 µM) | cell viability (SEM cells [2]; RPMI 5 mM glucose + 10% dialyzed FBS, 0.00702 µM) | cell viability (SEM cells [2]; RPMI 5 mM glucose + 10% dialyzed FBS, 0.0211 µM) | cell viability (SEM cells [2]; RPMI 5 mM glucose + 10% dialyzed FBS, 0.0632 µM) | cell viability (SEM cells [2]; RPMI 5 mM glucose + 10% dialyzed FBS, 0.19 µM) | cell viability (SEM cells [2]; RPMI 5 mM glucose + 10% dialyzed FBS, 0.569 µM) | cell viability (SEM cells [2]; RPMI 5 mM glucose + 10% dialyzed FBS, 1.71 µM) | cell viability (SEM cells [2]; RPMI 5 mM glucose + 10% dialyzed FBS, 5.12 µM) | cell viability (SEM cells [2]; RPMI 5 mM glucose + 10% dialyzed FBS, 15.4 µM) | cell viability (SEM cells [2]; RPMI 5 mM glucose + 10% dialyzed FBS, 46.1 µM)
CC1(C)S[C@H]2[C@H](NC(=O)[C@@H](N)C3=CC=C(O)C=C3)C(=O)[N@]2[C@H]1C(O)=O | 383 | 394 | 393 | 394 | 394 | 383 | 456 | 441 | 461 |  |  |  |  |  |  |  |  |  |  |  |  |  |  |  |  |  |  |  |  |  | 
COC1=C(OC)C(=O)C(C/C=C(\C)CC/C=C(\C)CC/C=C(\C)CC/C=C(\C)CC/C=C(\C)CC/C=C(\C)CC/C=C(\C)CC/C=C(\C)CC/C=C(\C)CCC=C(C)C)=C(C)C1=O | 461 | 453 | 466 | 453 | 435 | 461 | 442 | 469 | 456 | 104% | 101% | 97.5% | 92.4% | 129% | 110% | 60.3% | 53.3% | 138% | 128% | 124% | 104% | 129% | 120% | 106% | 112% | 124% | 56.4% | 43.4% | 123% | 126% | 120%
CCC(C)N(C)C(=O)c1cc2ccccc2c(-c2ccccc2Cl)n1 (centres undefined) | 452 | 473 | 453 | 462 | 471 | 463 | 461 | 460 | 464 |  |  |  |  |  |  |  |  |  |  |  |  |  |  |  |  |  |  |  |  |  | 
